# How the values were obtained:
# [1] = system: Mycobacterium leprae, Mycobacterium avium complex (MAC), and M. tuberculosis; details: against mycobacterium such as M. leprae; cited from earlier work
# [2] = Geometric particle size distribution by HELOS laser diffraction with RODOS dispersion; format: physicochemical; details: averaged n = 3
# [3] = Sabnis et al., 2015; cited from earlier work
# J774.A1 macrophages = experiment: Flow cytometric quantification of clofazimine uptake and biotransformation to liquid crystals; format: cell-based, murine
Structure (SMILES),minimum inhibitory concentration (MIC) [1] [µg/mL],Span [2],X10 ([2]; first column) [μm],X10 ([2]; second column) [μm],X10 ([2]; third column) [μm],clofazimine solution in methanol that can be formed [3] [%],cell proliferation/viability compared to control (J774.A1 cells),"cells fluorescent at 660 nm emission (biotransformation to liquid crystals) (J774.A1 macrophages; J774.A1, 24 hours exposure) [%]","cells containing drug, fluorescence at 610 nm emission (crystalline clofazimine) (J774.A1 macrophages; J774.A1, 24 hours exposure, 10,000 cells) [%]"
"CC(C)N=c1cc2n(-c3ccc(Cl)cc3)c3ccccc3nc-2cc1Nc1ccc(Cl)cc1 [clofazimine, N,5-bis(4-chlorophenyl)-3-(1-methylethylimino)-5H-phenazin-2-amine]",0.125 to 2,2.62,1.55,7.90,21.96,0.1,,,
CC(C)/N=c1\cc2n(-c3ccc(Cl)cc3)c3ccccc3nc-2cc1Nc1ccc(Cl)cc1 [solubilized clofazimine],,,,,,,significant decrease,0.21,2.48

# Source: US20240099967A1, “INHALABLE COMPOSITION OF CLOFAZIMINE AND METHODS OF USE THEREOF” (priority 2017, published 2024)
